Measured values from ChEMBL document CHEMBL1133912, “Coupling of the antennapedia third helix to a potent antagonist of the p53/hdm2 protein-protein interaction” (Bioorg Med Chem Lett, 2001).
Square brackets hold non-standard residues; d marks the D form. Peptide text beside a SMILES is read from it. Trp(6-Cl) = N[C@@H](Cc1c[nH]c2cc(Cl)ccc12)C(=O)O; Pmp = N[C@@H](Cc1ccc(CP(=O)(O)O)cc1)C(=O)O; Ac3c = NC1(C(=O)O)CC1; Aib = CC(C)(N)C(=O)O

Assay: In vitro inhibition of binding towards of human wild-type p53 to GST-hdm2

CSCC[C@H](NC(=O)[C@H](Cc1ccccc1)NC(C)=O)C(=O)NC(C)(C)C(=O)N[C@@H](Cc1ccc(CP(=O)(O)O)cc1)C(=O)N[C@@H](C)C(=O)N[C@@H](CCC(=O)O)C(=O)NC1(C(=O)N[C@@H](CC(C)C)C(N)=O)CC1 (Ac-FM[Aib][Pmp]AE[Ac3c]L-NH2)
IC50: > 2000 nM

CSCC[C@H](NC(=O)[C@H](Cc1ccccc1)NC(C)=O)C(=O)NC(C)(C)C(=O)N[C@@H](Cc1ccc(CP(=O)(O)O)cc1)C(=O)N[C@@H](Cc1c[nH]c2cc(Cl)ccc12)C(=O)N[C@@H](CCC(=O)O)C(=O)NC1(C(=O)N[C@@H](CC(C)C)C(N)=O)CC1 (Ac-FM[Aib][Pmp][Trp(6-Cl)]E[Ac3c]L-NH2)
IC50: 5 nM
